In patent publication US9765038B2, “Heteroaryl compounds and uses thereof” (Celgene CAR LLC, priority 2010, dated 2017):

Tests used:
[1] = molecular target: EGFR delE746-A750 mutation (HCC827 cells) (Homo sapiens (Human), UniProt P00533, DEL746-750); experiment: EGFR signaling immunoblot in HCC827 cells; type: cell-based; conditions: for Ratio WT/mutant: signaling EC50, WT EGFR (A431) vs HCC827
Experimental: (§1) A431 human epidermoid carcinoma, H1975 human NSCLC and HCC827 human NSCLC adenocarcinoma cells were obtained from the American Type Culture Center (Manassas, Va.). A431 cells were grown in DMEM (Invitrogen, Carlsbad, Calif.) supplemented with 10% FBS (HyClone, South Logan, Utah) and 1% Penicillin-Streptomycin (P/S, Lonza, Walkersville, Md.).
(§2) All primary antibodies were obtained from Cell Signaling (Danvers, Mass.) and used at 1:1000. Secondary antibodies were used at 1:10,000. Goat anti-mouse IgG IRDye 800CW antibody was obtained from LiCor Biosciences (Lincoln, Nebr.) and goat anti-rabbit IgG Alexa Fluor 680 was obtained from Invitrogen.
(§3) Cells were grown in 12-well plates (Corning, Coring, N.Y.) to 90% confluence and then incubated in low-serum (0.1% FBS) media for 16-18 hr. […] A431 cells were then stimulated with 50 ng/ml EGF (Peprotech, Rocky Hill, N.J.) for 15 min. After treatment, cell monolayers were washed with cold PBS (Invitrogen) and immediately lysed by scrapping into 60 uL cold Cell Extraction Buffer (Invitrogen) supplemented with Complete Protease inhibitors (Roche, Indianapolis, Ind.) and PhosphoSTOP (Roche) phosphatase inhibitors.
(§4) Phospho-protein signals were quantitated using Odyssey Infrared Imaging (Li-Cor Biosciences).
(§5) Blots were normalized as indicated above. […] Normalized data was fitted using a sigmoidal curve analysis program (Graph Pad Prism version 5) with variable Hill slope to determine the EC50 values.

[2] = molecular target: EGFR double mutation L858R/T790M (H1975 cells) (Homo sapiens (Human), UniProt P00533, L858R/T790M); experiment: EGFR signaling immunoblot (phospho-EGFR, phospho-S6) in H1975 cells; type: cell-based; conditions: for Ratio WT/mutant: signaling EC50, WT EGFR (A431) vs H1975
Experimental: as §1, §2, §3, §4, §5

[3] = molecular target: T1, EGFR T790M/L858R (Homo sapiens (Human), UniProt P00533, L858R/T790M); experiment: Omnia assay, EGFR (T790M/L858R) active enzyme; type: biochemical; conditions: for Ratio WT/mutant: biochemical IC50, WT EGFR vs EGFR (T790M/L858R); for IC50: [EGFR-T790M/L858R]=2.5 nM, [ATP]=20 uM, 30 min pre-incubation
[4] = molecular target: T1, EGFR T790M/L858R; conditions: for covalent modification of the protein: intact protein MS, I-1 within 30 minutes
[5] = molecular target: pEGFR in H1975 cells (Homo sapiens (Human), UniProt P00533, L858R/T790M); conditions: 500 nM for 1 hr, washout up to 24 hr, FIG. 3
[6] = molecular target: WT EGFR (A431 cells) (Homo sapiens (Human), UniProt P00533); experiment: EGFR signaling immunoblot (phospho-EGFR, phospho-S6) in A431 cells; type: cell-based; conditions: FIG. 2
Experimental: as §1, §2, §3, §4
Blots were normalized as indicated above. […]

[7] = system: H1975 cells (EGFR L858R/T790M); experiment: Cell proliferation (CellTiter Glo), H1975 cells; type: cell-based, human; conditions: GI50, WT EGFR (A431) vs H1975
Experimental: as §1
(§6) Growth inhibition (GI50) values were determined by Graph Pad Prism.

[8] = system: HCC827 cells (EGFR delE746-A750); experiment: Cell proliferation (CellTiter Glo), HCC827 cells; type: cell-based, human; conditions: GI50, WT EGFR (A431) vs HCC827
Experimental: as §1, §6

[9] = molecular target: EGFR-WT (Homo sapiens (Human), UniProt P00533); experiment: Omnia assay, EGFR (WT) active enzyme; type: biochemical; conditions: [EGFR-WT]=5 nM, [ATP]=15 uM, 30 min pre-incubation
[10] = 10-fold excess of compound, MALDI, FIG. 4

Row | Compound | Ratio WT/mutant [2] | Ratio WT/mutant [3] | other results
1 | C=CC(=O)Nc1cccc(Nc2nc(Nc3ccccc3OC)ncc2C(F)(F)F)c1 [Compound I-1, N-(3-(2-(2-methoxyphenylamino)-5-(trifluoromethyl)pyrimidin-4-ylamino)phenyl)acrylamide] | >50 | >50 | Ratio WT/mutant [1]: >50; mass shift [4, 10]: 488 Da; mass shift relative to compound mass [4, 10]: 113%; covalent modification of the protein [4]: completely modifies; duration of action after washout (pEGFR) [5]: prolonged duration of action
2 | C=CC(=O)Nc1cccc(Oc2nc(Nc3ccccc3OC)ncc2C(F)(F)F)c1 [Compound I-2, N-(3-(2-(2-methoxyphenylamino)-5-(trifluoromethyl)pyrimidin-4-yloxy)phenyl)acrylamide] |  |  | covalent modification of the protein [4]: covalently modify the protein; duration of action after washout (pEGFR) [5]: prolonged duration of action
3 | C=CC(=O)Nc1cccc(Nc2nc(Nc3ccc(OC)c(OC)c3OC)ncc2Br)c1 [Compound I-5, N-(3-(5-bromo-2-(2,3,4-trimethoxyphenylamino)pyrimidin-4-ylamino)phenyl)acrylamide] | >50 | >45 | 
4 | C=CC(=O)Nc1cccc(Oc2nc(Nc3ccc(OC)c(OC)c3OC)ncc2Cl)c1 [Compound I-7, N-(3-(5-chloro-2-(2,3,4-trimethoxyphenylamino)pyrimidin-4-yloxy)phenyl)acrylamide] | >50 | >25 | WT-EGFR sparing [6]: completely WT-EGFR sparing; inhibition of pEGFR and downstream S6 ribosomal protein ([2]; H1975 cells, FIG. 1 and FIG. 2): inhibiting pEGFR and its downstream target S6 Ribosomal protein; Ratio WT/mutant [7]: >10; Ratio WT/mutant [8]: >15; covalent modification of the protein [4]: covalently modify the protein
5 | C=CC(=O)Nc1cccc(Nc2nc(Nc3ccc(OC)c(OC)c3OC)ncc2C(F)(F)F)c1 [Compound I-11, N-(3-(5-(trifluoromethyl)-2-(2,3,4-trimethoxyphenylamino)pyrimidin-4-ylamino)phenyl)acrylamide] | >50 | >25 | Ratio WT/mutant [1]: >5
6 | C=CC(=O)Nc1cccc(Nc2nc(Nc3cccc(OC)c3OC)ncc2Br)c1 [Compound I-14, N-(3-(5-bromo-2-(2,3-dimethoxyphenylamino)pyrimidin-4-ylamino)phenyl)acrylamide] |  | >50 | IC50 [9]: 300 to 1000 nM; IC50 [3]: 1 to 10 nM
7 | C=CC(=O)Nc1cccc(Oc2nc(Nc3cccc(OC)c3OC)ncc2Cl)c1 [Compound I-17, N-(3-(5-chloro-2-(2,3-dimethoxyphenylamino)pyrimidin-4-yloxy)phenyl)acrylamide] |  | >35 | EC50 ([1]; HCC827 cells, signaling, 1 hr): 500 to 1000 nM; IC50 [9]: 300 to 1000 nM; IC50 [3]: 10 to 100 nM
8 | C=CC(=O)Nc1cccc(Nc2nc(Nc3ccccc3OC)ncc2Cl)c1 [Compound I-18, N-(3-(5-chloro-2-(2-methoxyphenylamino)pyrimidin-4-ylamino)phenyl)acrylamide] |  | >30 | 
9 | C=CC(=O)Nc1cccc(Nc2nc(Nc3ccc(OC)cc3OC)ncc2Br)c1 [Compound I-20, N-(3-(5-bromo-2-(2,4-dimethoxyphenylamino)pyrimidin-4-ylamino)phenyl)acrylamide] |  | >45 | 

The next lines start with results.

Row | Ratio WT/mutant [2] | Ratio WT/mutant [3] | Compound | other results
10 |  | >45 | C=CC(=O)Nc1cccc(Oc2nc(Nc3cccc(OC)c3OC)ncc2Br)c1 [Compound I-6, N-(3-(5-bromo-2-(2,3-dimethoxyphenylamino)pyrimidin-4-yloxy)phenyl)acrylamide] | 
11 | >50 | >50 | C=CC(=O)Nc1cccc(Oc2nc(Nc3ccc(OC)c(OC)c3OC)ncc2C(F)(F)F)c1 [Compound I-10, N-(3-(5-(trifluoromethyl)-2-(2,3,4-trimethoxyphenylamino)pyrimidin-4-yloxy)phenyl)acrylamide] | 
12 |  | >10 | C=CC(=O)Nc1cccc(Oc2nc(Nc3ccccc3OC)ncc2F)c1 [Compound I-19, N-(3-(5-fluoro-2-(2-methoxyphenylamino)pyrimidin-4-yloxy)phenyl)acrylamide] | 
13 | >5 | >50 | C=CC(=O)Nc1cccc(Nc2nc(Nc3ccc(OC)cc3OC)ncc2Cl)c1 [Compound I-21, N-(3-(5-chloro-2-(2,4-dimethoxyphenylamino)pyrimidin-4-ylamino)phenyl)acrylamide] | 
